Experimental data reported in US9896445B2, “Heterocyclic inhibitors of ERK1 and ERK2 and their use in the treatment of cancer” (Asana Biosciences, LLC, priority 2015, dated 2018).

Experiments:
ERK1 = molecular target: T1, ERK1 (Homo sapiens, UniProt P27361); assay: ERK1 HTRF (biochemical) assay
T1 construct: purchased Jubilant Biosys
Experimental: (§1) ERK1 and ERK2 HTRF (Biochemical) Assays
These assays employed a homogeneous time resolved fluorescence (HTRF) technique. […] The plate was incubated at room temperature for 60 min with shaking. […] The IC50 values (half maximal inhibitory concentration values) were subsequently determined using a sigmoidal dose-response curve (variable slope) in GraphPad Prism® 5 software.

ERK2 = molecular target: T2, ERK2 (Homo sapiens, UniProt P28482); assay: ERK2 HTRF (biochemical) assay
T2 construct: purchased Jubilant Biosys
T2 sequence (P28482 whole entry): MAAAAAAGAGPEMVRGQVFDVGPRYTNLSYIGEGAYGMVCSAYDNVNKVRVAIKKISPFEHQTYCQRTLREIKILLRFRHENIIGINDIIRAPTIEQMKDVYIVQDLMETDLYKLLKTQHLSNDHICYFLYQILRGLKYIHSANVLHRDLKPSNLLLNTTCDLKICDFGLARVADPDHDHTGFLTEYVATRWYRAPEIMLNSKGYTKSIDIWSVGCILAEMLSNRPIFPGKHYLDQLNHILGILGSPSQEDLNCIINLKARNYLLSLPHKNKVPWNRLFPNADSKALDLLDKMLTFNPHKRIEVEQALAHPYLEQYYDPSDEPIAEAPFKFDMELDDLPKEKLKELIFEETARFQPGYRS
Experimental: as §1
These assays employed a homogeneous time resolved fluorescence (HTRF) technique. The compounds were serially diluted by half-log with concentrations ranging from 0.0005 to 10 uM in the assay buffer (50 mM Tris pH=7.5, 1 mM EGTA, 2 mM DTT, 10 mM MgCl2, 0.1% Tween-20) and 20 uL of substrate-ATP mix [1 uM Biotin-LC-Myelin Basic Protein (MBP) derivatized Peptide (Anaspec)-24 uM ATP (Sigma)] was added to each well of the assay plate. Then 10 uL of enzyme mix [25 nM ERK1 or ERK2 (Jubilant Biosys) in assay buffer] was added to each well. The plate was incubated at room temperature for 60 min with shaking. The HTRF mix [625 nM LANCE® Ultra Europium-anti-phospho-MBP (Perkin Elmer) and 2 nM Phycolink® Streptavidin-Allophycocyanin (SA-APC) (Prozyme) in HTRF buffer (50 mM Tris-HCl pH=7.5, 100 mM NaCl, 0.1% BSA, 0.05% Tween20, 0.5 mM EDTA)] was prepared and 75 uL of this mix was added to the HTRF plate. After incubation for 60 min at room temperature, 10 uL of the reaction mixture was transferred to the HTRF assay plate and incubated for 45 min at room temperature with shaking. Plate was read using Pherastar in HTRF mode (excitation 337 nm, emission 665 & 620 nm). The IC50 values (half maximal inhibitory concentration values) were subsequently determined using a sigmoidal dose-response curve (variable slope) in GraphPad Prism® 5 software.

T1 sequence (P27361 whole entry): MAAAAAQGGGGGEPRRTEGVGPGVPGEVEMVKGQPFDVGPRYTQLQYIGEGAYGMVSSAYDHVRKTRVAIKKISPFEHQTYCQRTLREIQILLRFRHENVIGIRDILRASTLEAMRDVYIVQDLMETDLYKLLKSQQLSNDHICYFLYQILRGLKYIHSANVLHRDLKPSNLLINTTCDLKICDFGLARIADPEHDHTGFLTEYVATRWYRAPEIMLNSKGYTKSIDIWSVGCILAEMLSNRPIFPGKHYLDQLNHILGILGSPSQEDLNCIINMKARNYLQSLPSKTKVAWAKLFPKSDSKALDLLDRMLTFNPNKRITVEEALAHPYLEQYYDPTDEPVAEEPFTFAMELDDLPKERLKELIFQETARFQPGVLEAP

Row | Compound | IC50 (ERK1; HTRF) [nM] | IC50 (ERK2; HTRF) [nM] | IC50 (ERK1; HTRF biochemical assay) [nM] | IC50 (ERK2; HTRF biochemical assay) [nM]
1 | Cc1cnc(Nc2ccc(F)cc2Cl)nc1-n1ccc(C(=O)NC(COC(=O)C(N)CC(C)C)c2ccccc2)c1 (stereo not drawn) [Compound 150, 2-(1-(2-((2-chloro-4-fluorophenyl)-amino)-5-methyl-pyrimidin-4-yl)-1H-pyrrole-3-carboxamido)-2-phenylethyl 2-amino-4-methyl-pentanoate] | 100 to 500 | ≤ 50 |  | 
2 | Cc1cnc(NC2CCOCC2)nc1-n1cnc(C(=O)NC(CO)c2ccc(Cl)s2)c1 (stereo not drawn) [Example 257, N-(1-(5-chlorothiophen-2-yl)-2-hydroxy-ethyl)-1-(5-methyl-2-((tetrahydro-2H-pyran-4-yl)amino)-pyrimidin-4-yl)-1H-imidazole-4-carboxamide] | < 50 | ≤ 50 |  | 
3 | Cc1cnc(Nc2ccc3c(c2)CCO3)nc1-n1ccc(C(=O)NC(CO)c2cccc(Cl)c2)c1 (stereo not drawn) [Compound 137, N-(1-(3-chloro-phenyl)-2-hydroxyethyl)-1-(2-((2,3-dihydro-benzofuran-5-yl)-mino)-5-methyl-pyrimidin-4-yl)-1H-pyrrole-3-carboxamide] | < 50 | ≤ 50 |  | 
4 | O=C(Nc1cnn(-c2ccnc(NC3CC3)n2)c1)N[C@H](CO)c1cccc(Cl)c1 [Compound 6, (S)-1-(1-(3-chlorophenyl)-2-hydroxyethyl)-3-(1-(2-(cyclopropyl-amino)pyrimidin-4-yl)-1H-pyrazol-4-yl)urea] | < 50 | ≤ 50 |  | 
5 | Cc1cnc(N[C@H]2CCOC2)nc1-n1cnc(C(=O)NCc2cccc(CO)c2Cl)c1 [Example 338, (S)-N-(2-chloro-3-(hydroxymethyl)-benzyl)-1-(5-methyl-2-((tetrahydrofuran-3-yl)amino)-pyrimidin-4-yl)-1H-imidazole-4-carboxamide] |  |  | < 50 | ≤ 50
6 | O=C(NC(CO)c1cccc(Cl)c1)c1ccn(-c2ccnc(Nc3ccccc3)c2)c1 (stereo not drawn) [Compound 46, N-(1-(3-chloro-phenyl)-2-hydroxy-ethyl)-1-(2-(phenyl-amino)pyridin-4-yl)-1H-pyrrole-3-carboxamide] | < 50 | ≤ 50 |  | 
7 | Cc1cnc(NC2CCCCC2)nc1-n1ccc(C(=O)NC(CO)c2cccc(Cl)c2)c1 (stereo not drawn) [Compound 195, N-(1-(3-chlorophenyl)-2-hydroxyethyl)-1-(2-(cyclohexylamino)-5-methylpyrimidin-4-yl)-1H-pyrrole-3-carboxamide] | < 50 | ≤ 50 |  | 
8 | O=C(NC(CO)c1cccc(Cl)c1)c1ccn(-c2cc(Nc3ccccc3)ncc2Cl)c1 (stereo not drawn) [Compound 124, 1-(5-chloro-2-(phenylamino)pyridin-4-yl)-N-(1-(3-chlorophenyl)-2-hydroxyethyl)-1H-pyrrole-3-carboxamide] | < 50 | ≤ 50 |  | 
9 | COc1cnc(Nc2ccc(F)cc2Cl)nc1-n1ccc(C(=O)NC(CO)c2ccccc2)c1 (stereo not drawn) [Compound 129, 1-(2-((2-chloro-4-fluorophenyl)amino)-5-methoxy-pyrimidin-4-yl)-N-(2-hydroxy-1-phenylethyl)-1H-pyrrole-3-carboxamide] | < 50 | ≤ 50 |  | 
10 | Cc1cnc(Nc2ccc3c(c2)CCO3)nc1-n1ccc(C(=O)NC(CO)c2ccccc2)c1 (stereo not drawn) [Compound 138, 1-(2-((2,3-dihydro-benzofuran-5-yl)amino)-5-methylpyrimidin-4-yl)-N-(2-hydroxy-1-phenylethyl)-1H-pyrrole-3-carboxamide] | < 50 | ≤ 50 |  | 
11 | Cc1cnc(NC2CC(F)(F)C2)nc1-n1cnc(C(=O)NC(CN)c2cc(F)cc(Cl)c2)c1 (stereo not drawn) [Example 278, N-(2-amino-1-(3-chloro-5-fluoro-phenyl)ethyl)-1-(2-((3,3-difluoro-cyclobutyl)amino)-5-methylpyrimidin-4-yl)-1H-imidazole-4-carboxamide] | < 50 | ≤ 50 |  | 
12 | Cc1cnc(NCc2cccnc2)cc1-n1ccc(C(=O)NC(CO)c2ccc(F)c(Cl)c2)c1 (stereo not drawn) [Compound 193, N-(1-(3-chloro-4-fluorophenyl)-2-hydroxyethyl)-1-(5-methyl-2-((pyridin-3-ylmethyl)-amino)pyridin-4-yl)-1H-pyrrole-3-carboxamide] | 100 to 500 | 100 to 500 |  | 
